According to patent US4495179A, “A51568 Antibiotic and process for producing thereof” (Eli Lilly and Company, priority 1983, dated 1985):
Values after ≈ are worked out from the molar mass of the structure shown.

Columns and labels:
[1] = system: Fusobacterium necrophorum; assay: Agar-dilution MIC, anaerobic bacteria (Table 10); format: cell-based; details: Fusobacterium necrophorum 6054A
[2] = system: Staphylococcus epidermidis; assay: Agar-dilution MIC, variety of bacteria (Table 8); format: cell-based
Protocol: (§1) The activity of antibiotic A51568 against a variety of bacteria, as determined by the agar-dilution method, is reported in Table 8, which follows, wherein the minimum inhibitory concentration (MIC) values are recorded.

Streptococcus pneumoniae = assay: Agar-dilution MIC, variety of bacteria (Table 8); format: cell-based
Protocol: as §1

Streptococcus pyogenes = assay: Agar-dilution MIC, variety of bacteria (Table 8); format: cell-based
Protocol: as §1

Staphylococcus aureus = assay: Agar-dilution MIC, variety of bacteria (Table 8); format: cell-based
Protocol: as §1

[3] = system: Streptococcus sp. Group D; assay: Agar-dilution MIC, variety of bacteria (Table 8); format: cell-based
Protocol: as §1

[4] = system: Haemophilus parainfluenzae; assay: Agar-dilution MIC, variety of bacteria (Table 8); format: cell-based
Protocol: as §1

[5] = system: Streptococcus sp. Group B; assay: Agar-dilution MIC, variety of bacteria (Table 8); format: cell-based
Protocol: as §1

Haemophilus influenzae = assay: Agar-dilution MIC, variety of bacteria (Table 8); format: cell-based
Protocol: as §1

Fusobacterium symbiosum = assay: Agar-dilution MIC, anaerobic bacteria (Table 10); format: cell-based; details: Fusobacterium symbiosum 1470
[6] = system: Bacteroides melaninogenicus; assay: Agar-dilution MIC, anaerobic bacteria (Table 10); format: cell-based
Clostridium difficile = assay: Agar-dilution MIC, anaerobic bacteria (Table 10); format: cell-based; details: Clostridium difficile 2994
Text: (§2) Antibiotic A51568 has been tested and found to be active against a number of anaerobic bacteria, as recorded in Table 10, which follows, the MIC values having been determined by the agar-dilution method.

Clostridium septicum = assay: Agar-dilution MIC, anaerobic bacteria (Table 10); format: cell-based; details: Clostridium septicum 1128
Text: as §2

[7] = system: Peptococcus asaccharolyticus; assay: Agar-dilution MIC, anaerobic bacteria (Table 10); format: cell-based; details: Peptococcus asaccharolyticus 1302
Strep. pneumoniae Park I = assay: In vivo protection against experimental bacterial infection; details: mice, two doses subcutaneously
Protocol: (§3) Antibiotic A51568 has shown in vivo antimicrobial activity against experimental bacterial infections. When two doses of test compound were administered subcutaneously to mice in illustrative infections, the activity observed is measured as an ED50 [effective dose in mg/kg to protect fifty percent of the test animals: See Warren Wick et al., J. Bacteriol. 81, 233-235 (1961)]. The ED50 values observed for antibiotic A51568 are as follows: […]

Staph. aureus 3055 = assay: as above; details: mice, Staph. aureus 3055 infection, two doses subcutaneously
Protocol: as §3

Strep. pyogenes C203 = assay: as above; details: mice, two doses subcutaneously
Protocol: as §3

Klebsiella pneumoniae = assay: Standard agar-dilution assay, aerobic bacteria (Table 9); format: cell-based
Protocol: The in vitro activity of antibiotic A51568 against a number of aerobic bacteria has been determined using a standard agar-dilution assay. The results, determined by reading the end point after 24 hours, are recorded in Table 9, which follows.

CC(C)C[C@@H](N)C(=O)N[C@@H]1C(=O)N[C@@H](CC(N)=O)C(=O)N[C@H]2C(=O)N[C@H]3C(=O)N[C@H](C(=O)N[C@H](C(=O)O)c4cc(O)cc(O)c4-c4cc3ccc4O)[C@H](O)c3ccc(c(Cl)c3)Oc3cc2cc(c3O[C@@H]2O[C@H](CO)[C@@H](O)[C@H](O)[C@H]2O[C@H]2C[C@](C)(N)C(O)[C@H](C)O2)Oc2ccc(cc2Cl)[C@H]1O (stereo partly shown) [A51568, demethylvancomycin]
MIC [1]: 2 µg/mL (≈ 1.39 µM)
MIC ([2]; Staphylococcus epidermidis 219): 1 µg/mL (≈ 0.697 µM)
MIC ([2]; Staphylococcus epidermidis 222): 1 µg/mL (≈ 0.697 µM)
MIC ([2]; Staphylococcus epidermidis 269): 2 µg/mL (≈ 1.39 µM)
MIC ([2]; Staphylococcus epidermidis 270): 2 µg/mL (≈ 1.39 µM)
MIC ([2]; Staphylococcus epidermidis 285): 2 µg/mL (≈ 1.39 µM)
MIC (Streptococcus pneumoniae; Streptococcus pneumoniae Bl-438): 0.5 µg/mL (≈ 0.348 µM)
MIC (Streptococcus pneumoniae; Streptococcus pneumoniae Park I): 0.125 µg/mL (≈ 0.0871 µM)
MIC (Streptococcus pyogenes; Streptococcus pyogenes ATCC 10389): 0.5 µg/mL (≈ 0.348 µM)
MIC (Streptococcus pyogenes; Streptococcus pyogenes C203): 0.5 µg/mL (≈ 0.348 µM)
MIC (Staphylococcus aureus; Staphylococcus aureus 3055): 0.5 µg/mL (≈ 0.348 µM)
MIC (Staphylococcus aureus; Staphylococcus aureus V102): 1 µg/mL (≈ 0.697 µM)
MIC (Staphylococcus aureus; Staphylococcus aureus V138): 1 µg/mL (≈ 0.697 µM)
MIC (Staphylococcus aureus; Staphylococcus aureus V140): 1 µg/mL (≈ 0.697 µM)
MIC (Staphylococcus aureus; Staphylococcus aureus X400): 1 µg/mL (≈ 0.697 µM)
MIC ([3]; Streptococcus sp. Group D 2041): 2 µg/mL (≈ 1.39 µM)
MIC ([3]; Streptococcus sp. Group D 2058): 4 µg/mL (≈ 2.79 µM)
MIC ([3]; Streptococcus sp. Group D 8043): 1 µg/mL (≈ 0.697 µM)
MIC ([3]; Streptococcus sp. Group D 9901): 2 µg/mL (≈ 1.39 µM)
MIC ([3]; Streptococcus sp. Group D 9960): 4 µg/mL (≈ 2.79 µM)
MIC ([3]; Streptococcus sp. Group D 12253F): 1 µg/mL (≈ 0.697 µM)
MIC ([3]; Streptococcus sp. Group D Mx161): 1 µg/mL (≈ 0.697 µM)
MIC ([3]; Streptococcus sp. Group D X66): 1 µg/mL (≈ 0.697 µM)
MIC ([4]; Haemophilus parainfluenzae 7901): 64 µg/mL (≈ 44.6 µM)
MIC ([4]; Haemophilus parainfluenzae 9796): 64 µg/mL (≈ 44.6 µM)
MIC ([5]; Streptococcus sp. Group B 5): 4 µg/mL (≈ 2.79 µM)
MIC ([5]; Streptococcus sp. Group B 14): 0.5 µg/mL (≈ 0.348 µM)
MIC (Haemophilus influenzae; Haemophilus influenzae 76): 64 µg/mL (≈ 44.6 µM)
MIC (Haemophilus influenzae; Haemophilus influenzae 312): 128 µg/mL (≈ 89.2 µM)
MIC (Haemophilus influenzae; Haemophilus influenzae 4842): 32 µg/mL (≈ 22.3 µM)
MIC (Haemophilus influenzae; Haemophilus influenzae 16836): 128 µg/mL (≈ 89.2 µM)
MIC (Haemophilus influenzae; Haemophilus influenzae Bond): 64 µg/mL (≈ 44.6 µM)
MIC (Haemophilus influenzae; Haemophilus influenzae C.L.): 32 µg/mL (≈ 22.3 µM)
MIC (Haemophilus influenzae; Haemophilus influenzae Mx366): 32 µg/mL (≈ 22.3 µM)
MIC (Haemophilus influenzae; Haemophilus influenzae Mx371): 64 µg/mL (≈ 44.6 µM)
MIC (Fusobacterium symbiosum): 2 µg/mL (≈ 1.39 µM)
MIC ([6]; Bacteroides melaninogenicus 1856/28): > 128 µg/mL
MIC ([6]; Bacteroides melaninogenicus 2736): 16 µg/mL (≈ 11.1 µM)
MIC (Clostridium difficile): 2 µg/mL (≈ 1.39 µM)
MIC (Clostridium septicum): 1 µg/mL (≈ 0.697 µM)
MIC [7]: 16 µg/mL (≈ 11.1 µM)
ED50 (effective dose to protect fifty percent of the test animals) (Strep. pneumoniae Park I): 2.71 mg/kg × 2
ED50 (effective dose to protect fifty percent of the test animals) (Staph. aureus 3055): 1.79 mg/kg × 2
ED50 (effective dose to protect fifty percent of the test animals) (Strep. pyogenes C203): 3.03 mg/kg × 2
MIC (Klebsiella pneumoniae; Klebsiella pneumoniae KAE, end point after 24 hours): > 128 µg/mL
MIC (Klebsiella pneumoniae; Klebsiella pneumoniae X26, end point after 24 hours): > 128 µg/mL
